Laboratory results reported in patent US20230406883A1, “COMPOUNDS AND THEIR USE IN TREATMENT OF TACHYKININ RECEPTOR MEDIATED DISORDERS” (Embark Biotech ApS, priority 2020, published 2023).
Values joined by “and” are separate entries in the source; they are usually repeats but may differ in a detail not shown here. Equal entries are not always repeated. Numbered stars: 1 amine (or outer) side, 2 acyl side, 3 side chain; on linkers, the order of the positions; unused ones are H or OH. Square brackets hold non-standard residues; d marks the D form. Peptide text beside a SMILES is read from it. * marks the point of attachment. C18 diacid = O=C(O)CCCCCCCCCCCCCCCCC(=O)*; C16 diacid = O=C(O)CCCCCCCCCCCCCCC(=O)*; γGlu = O=C(O)[C@H](CCC(=O)[*:2])N[*:1]; C14 diacid = O=C(O)CCCCCCCCCCCCC(=O)*; NMeL = CN[C@@H](CC(C)C)C(=O)O; Nle = CCCC[C@H](N)C(=O)O; AEEA = NCCOCCOCC(=O)O

How the values were obtained:
Experiment in all cases: IP3 assay (inositol trisphosphate, 3H-myoinositol) in transiently transfected COS-7 cells
Assay type in all cases: cell-based
hNK1R = target: T1, hNK1R (Homo sapiens, UniProt P25103); details: COS-7 cells; for EC50: 0.2% ovalbumin buffer; for hNK1R, IP3 Efficacy: figure legends: percent of 10^-6 M NKA
T1 construct: host or cells: COS-7
Procedure: (§1) Agonist-induced G-protein coupled receptor (GPCR) activation was measured by an Inositol-1,4,5-Trisphosphate [^3H] Radioreceptor Assay (IPs Assay). Assays were carried out using COS-7 cells transiently transfected by calcium phosphate transfection with a vector pcDNA3.1(+) encoding one of the indicated receptors (Genscript). Briefly, DNA mixed with CaCl2 (2 M) and TE-buffer (10 mM Tris-HCl, 1 mM EDTA, pH 7.5) was dropwise added to 2×HBS (50 mM HEPES, 280 mM NaCl, 1.5 mM NaH2PO4, pH 7.2) and incubated for 45 min at room temperature (22±2° C.). The mixture and a final concentration of 100 μM Chloroquine were added to the cells and left to incubate for 5 hours at 37° C. under standard cell culture conditions (10% CO2) before changing medium to fresh medium containing 5 μl/mL Myo-[2-^3H(N)]-inositol (labelling medium).
(§2) The IP3 assay takes advantage of the tachykinin receptors' ability to induce production of the inositol trisphosphate (IP3) second messenger upon agonist (ligand) binding on receptor expressing cells following an initial ^3H-inositol labelling period. In effect this means that production of the second messenger IP3 as a measure of receptor activity can be assessed by counting ^3H-activity.
(§3) Assay solutions used: Wash buffer (HBSS), Assay buffer (HBSS+10 mM LiCl and 0,2% w/v ovalbumin), Lysis buffer (10 mM formic acid), and SPA YSI beads (12.5 mg/ml in H2O). The assay was performed the day after transfection. Briefly, labelling medium was aspirated, and plates were washed ×1 in wash buffer before adding 100 μl assay buffer, pre-incubated for 30 min followed by 120 min incubation with agonist, both at 37° C. After incubation, plates were immediately placed on ice and the incubation medium was aspirated and 40 μl of 10 mM formic acid per well was added. Plates were incubated for at least 30 min on ice. 60 μl (1 mg/well) SPA YSI beads/well was pipetted into a solid white 96 wells plate and 35 μl of the lysis solution was transferred to the plate before covering plates with seal cover and shaking for 10 min. (max speed). Centrifuge plates and leave for 8 hours at room temperature before counting the plates in a MicroBeta plate counter (Perkin Elmer).

hNK3R = target: T2, hNK3R (Homo sapiens, UniProt P29371); details: COS-7 cells; for EC50: 0.2% ovalbumin buffer, read-out: hNK3, IP3 EC50; for hNK3, IP3 Efficacy: figure legends: percent of 10^-6 M NKA
T2 construct: host or cells: COS-7
T2 sequence (P29371 1-465): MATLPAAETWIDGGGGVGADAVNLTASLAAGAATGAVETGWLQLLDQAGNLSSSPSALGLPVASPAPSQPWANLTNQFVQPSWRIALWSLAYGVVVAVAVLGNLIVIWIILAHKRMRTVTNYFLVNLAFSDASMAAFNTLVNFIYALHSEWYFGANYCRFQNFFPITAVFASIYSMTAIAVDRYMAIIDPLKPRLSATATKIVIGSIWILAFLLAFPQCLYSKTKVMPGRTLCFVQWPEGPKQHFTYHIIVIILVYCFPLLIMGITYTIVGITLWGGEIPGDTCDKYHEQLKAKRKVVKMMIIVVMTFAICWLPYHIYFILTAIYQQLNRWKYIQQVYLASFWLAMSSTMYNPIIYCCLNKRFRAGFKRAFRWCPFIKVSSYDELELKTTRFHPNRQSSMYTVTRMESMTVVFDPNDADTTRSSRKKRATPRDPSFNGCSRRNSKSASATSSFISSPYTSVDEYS
Procedure: as §1, §2, §3

hNK2R = target: T3, hNK2R (Homo sapiens, UniProt P21452); details: for EC50 / hNK2R, IP3 Efficacy: COS-7 cells; for EC50: 0.2% ovalbumin buffer; for hNK2R, IP3 Efficacy: figure legends: percent of 10^-6 M NKA
T3 construct: host or cells: COS-7
T3 sequence (P21452 1-398): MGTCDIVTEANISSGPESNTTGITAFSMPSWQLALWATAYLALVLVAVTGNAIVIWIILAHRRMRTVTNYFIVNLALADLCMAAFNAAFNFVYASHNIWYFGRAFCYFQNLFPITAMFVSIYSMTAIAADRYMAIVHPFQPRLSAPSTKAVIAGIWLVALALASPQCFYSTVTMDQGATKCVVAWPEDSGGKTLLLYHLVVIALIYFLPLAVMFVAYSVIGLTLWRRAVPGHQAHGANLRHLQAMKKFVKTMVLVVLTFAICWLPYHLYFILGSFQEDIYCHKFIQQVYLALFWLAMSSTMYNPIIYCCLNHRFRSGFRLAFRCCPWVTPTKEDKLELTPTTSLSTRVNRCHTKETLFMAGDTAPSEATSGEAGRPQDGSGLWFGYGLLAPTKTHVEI
Procedure: as §1, §2, §3

T1 sequence (P25103 whole entry): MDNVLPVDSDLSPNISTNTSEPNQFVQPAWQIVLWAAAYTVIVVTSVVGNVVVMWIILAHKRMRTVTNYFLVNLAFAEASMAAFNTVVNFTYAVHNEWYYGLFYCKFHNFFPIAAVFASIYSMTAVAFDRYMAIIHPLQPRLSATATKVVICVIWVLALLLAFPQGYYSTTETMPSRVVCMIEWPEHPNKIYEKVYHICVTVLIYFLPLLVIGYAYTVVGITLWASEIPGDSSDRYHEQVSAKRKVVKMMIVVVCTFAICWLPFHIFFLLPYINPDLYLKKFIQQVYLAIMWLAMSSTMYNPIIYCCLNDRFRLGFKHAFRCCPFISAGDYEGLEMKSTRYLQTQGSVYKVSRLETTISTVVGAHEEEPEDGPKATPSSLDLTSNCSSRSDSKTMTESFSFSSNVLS

| Compound | EC50 (hNK1R) [µM] | hNK1R, IP3 Efficacy (hNK1R) [%] | EC50 (hNK3R) [µM] | hNK3, IP3 Efficacy (hNK3R) [%] | EC50 (hNK2R) | hNK2R, IP3 Efficacy (hNK2R) [%] | hNK2R receptor activation, in words (hNK2R) |
| --- | --- | --- | --- | --- | --- | --- | --- |
| CCCC[C@H](NC(=O)[C@H](CC(C)C)N(C)C(=O)CNC(=O)[C@@H](NC(=O)[C@H](Cc1ccccc1)NC(=O)[C@H](CCCCN)NC(=O)[C@H](CCC(=O)O)NC(=O)COCCOCCNC(=O)COCCOCCNC(=O)CC[C@H](NC(=O)CCCCCCCCCCCCCCCCC(=O)O)C(=O)O)[C@@H](C)O)C(N)=O [compound 397, *Glu;Lys;Phe;Thr;Gly;NmLeu;Nle;NH2] ({C18 diacid-γGlu-AEEA-AEEA}-EKFTG[NMeL][Nle]-NH2) | – | 0 | – | 0 | 0.028 µM | 75 | – |
| CCCC[C@H](NC(=O)[C@H](CC(C)C)N(C)C(=O)CNC(=O)[C@@H](NC(=O)[C@H](Cc1ccccc1)NC(=O)[C@H](CO)NC(=O)[C@H](CC(=O)O)NC(=O)[C@@H](NC(=O)[C@H](CCCCN)NC(=O)COCCOCCNC(=O)COCCOCCNC(=O)CC[C@H](NC(=O)CCCCCCCCCCCCCCCCC(=O)O)C(=O)O)[C@@H](C)O)C(C)C)C(N)=O [compound 312, *Lys;Thr;Asp;Ser;Phe;Val;Gly;NmLeu;Nle;NH2] | ~0.178 | 44 | 0.513 | 80 | 0.025 µM | 65 | – |
| CCCC[C@H](NC(=O)[C@H](CC(C)C)N(C)C(=O)CNC(=O)[C@@H](NC(=O)[C@H](Cc1ccccc1)NC(=O)[C@H](CCCNC(=N)N)NC(=O)[C@H](CCC(=O)O)NC(=O)COCCOCCNC(=O)COCCOCCNC(=O)CC[C@H](NC(=O)CCCCCCCCCCCCCCCCC(=O)O)C(=O)O)C(C)C)C(N)=O [compound 337, *Glu;Arg;Phe;Val;Gly;NmLeu;Nle;NH2] ({C18 diacid-γGlu-AEEA-AEEA}-ERFVG[NMeL][Nle]-NH2) | 0.023 | 70 | 0.043 | 100 | 0.004 µM and 0.0013 µM | 80 | – |
| CCCC[C@H](NC(=O)[C@H](CC(C)C)N(C)C(=O)CNC(=O)[C@H](CO)NC(=O)[C@H](Cc1ccc(O)cc1)NC(=O)[C@H](CCCCN)NC(=O)[C@H](CC(=O)O)NC(=O)COCCOCCNC(=O)COCCOCCNC(=O)CC[C@H](NC(=O)CCCCCCCCCCCCCCCCC(=O)O)C(=O)O)C(N)=O [compound 386, *Asp;Lys;Tyr;Ser;Gly;NmLeu;Nle;NH2] ({C18 diacid-γGlu-AEEA-AEEA}-DKYSG[NMeL][Nle]-NH2) | – | 0 | – | 0 | 0.029 µM | 63 | – |
| CCCC[C@H](NC(=O)[C@H](CC(C)C)N(C)C(=O)CNC(=O)[C@H](CCCNC(=N)N)NC(=O)[C@H](Cc1ccc(O)cc1)NC(=O)[C@H](CCCCN)NC(=O)[C@H](CCC(=O)O)NC(=O)COCCOCCNC(=O)COCCOCCNC(=O)CC[C@H](NC(=O)CCCCCCCCCCCCCCCCC(=O)O)C(=O)O)C(N)=O [compound 314, *Glu;Lys;Tyr;Arg;Gly;NmLeu;Nle;NH2] ({C18 diacid-γGlu-AEEA-AEEA}-EKYRG[NMeL][Nle]-NH2) | – | 0 | – | 0 | ~3.1 µM | 45 | – |
| CCCC[C@H](NC(=O)[C@H](CC(C)C)N(C)C(=O)CNC(=O)[C@@H](NC(=O)[C@H](Cc1ccccc1)NC(=O)[C@H](CCCCNC(=O)COCCOCCNC(=O)COCCOCCNC(=O)CC[C@H](NC(=O)CCCCCCCCCCCCCCCCC(=O)O)C(=O)O)NC(=O)[C@@H](N)CC(=O)O)C(C)C)C(N)=O [compound 307, Asp;Lys*;Phe;Val;Gly;NmLeu;Nle;NH2] | – | 64 | ~12 | 85 | 0.024 µM | 80 | – |
| CSCC[C@H](NC(=O)[C@H](CC(C)C)N(C)C(=O)CNC(=O)[C@@H](NC(=O)[C@H](Cc1ccccc1)NC(=O)[C@H](CCCCNC(=O)COCCOCCNC(=O)COCCOCCNC(=O)CC[C@H](NC(=O)CCCCCCCCCCCCCCCCC(=O)O)C(=O)O)NC(=O)[C@H](CC(=O)O)NC(C)=O)C(C)C)C(N)=O [compound 301, **Asp;Lys*;Phe;Val;Gly;NmLeu;Met;NH2] | ~1.5 | 64 | 0.16 | 85 | 0.038 µM | 63 | – |
| CSCC[C@H](NC(=O)[C@H](CC(C)C)N(C)C(=O)CNC(=O)[C@@H](NC(=O)[C@H](Cc1ccccc1)NC(=O)[C@H](CCCCNC(=O)COCCOCCNC(=O)COCCOCCNC(=O)CC[C@H](NC(=O)CCCCCCCCCCCCCCCCC(=O)O)C(=O)O)NC(=O)[C@H](CC(=O)O)NC(=O)COCCOCCNC(=O)COCCOCCNC(=O)CC[C@H](NC(=O)CCCCCCCCCCCCCCCCC(=O)O)C(=O)O)C(C)C)C(N)=O [compound 302, *Asp;Lys*;Phe;Val;Gly;NmLeu;Met;NH2] | – | – | – | – | – | – | inactivates the NKA(4-10) analogue |

The remaining compounds from weak to strong by EC50 (hNK2R), led by results:

| EC50 (hNK1R) [µM] | hNK1R, IP3 Efficacy (hNK1R) [%] | EC50 (hNK3R) [µM] | hNK3, IP3 Efficacy (hNK3R) [%] | EC50 (hNK2R) | hNK2R, IP3 Efficacy (hNK2R) [%] | hNK2R receptor activation, in words (hNK2R) | Compound |
| --- | --- | --- | --- | --- | --- | --- | --- |
| – | 0 | – | 0 | 0.019 µM | 70 | – | CCCC[C@H](NC(=O)[C@H](CC(C)C)N(C)C(=O)CNC(=O)[C@@H](NC(=O)[C@H](Cc1ccc(O)cc1)NC(=O)[C@H](CCCCN)NC(=O)[C@H](CC(=O)O)NC(=O)COCCOCCNC(=O)COCCOCCNC(=O)CC[C@H](NC(=O)CCCCCCCCCCCCC(=O)O)C(=O)O)C(C)C)C(N)=O [compound 368, *Asp;Lys;Tyr;Val;Gly;NmLeu;Nle;NH2] ({C14 diacid-γGlu-AEEA-AEEA}-DKYVG[NMeL][Nle]-NH2) |
| – | 50 | – | 10 | 0.0065 µM | 90 | – | CCCC[C@H](NC(=O)[C@H](CC(C)C)N(C)C(=O)CNC(=O)[C@@H](NC(=O)[C@H](Cc1ccc(O)cc1)NC(=O)[C@H](CCCNC(=N)N)NC(=O)[C@H](CCC(=O)O)NC(=O)COCCOCCNC(=O)COCCOCCNC(=O)CC[C@H](NC(=O)CCCCCCCCCCCCCCCCC(=O)O)C(=O)O)C(C)C)C(N)=O [compound 357, *Glu;Arg;Tyr;Val;Gly;NmLeu;Nle;NH2] ({C18 diacid-γGlu-AEEA-AEEA}-ERYVG[NMeL][Nle]-NH2) |
| ~31 | 20 | – | 0 | 0.0056 µM | 75 | – | CCCC[C@H](NC(=O)[C@H](CC(C)C)N(C)C(=O)CNC(=O)[C@@H](NC(=O)[C@H](Cc1ccc(O)cc1)NC(=O)[C@H](CCCCN)NC(=O)[C@H](CC(=O)O)NC(=O)COCCOCCNC(=O)COCCOCCNC(=O)CC[C@H](NC(=O)CCCCCCCCCCCCCCC(=O)O)C(=O)O)C(C)C)C(N)=O [compound 367, *Asp;Lys;Tyr;Val;Gly;NmLeu;Nle;NH2] ({C16 diacid-γGlu-AEEA-AEEA}-DKYVG[NMeL][Nle]-NH2) |
| 0.0055 | 100 | 0.034 | 100 | 0.0033 µM | 100 | – | CCCC[C@H](NC(=O)[C@H](CC(C)C)N(C)C(=O)CNC(=O)[C@@H](NC(=O)[C@H](Cc1ccccc1)NC(=O)[C@H](CCCCN)NC(=O)[C@H](CC(=O)O)NC(=O)COCCOCCNC(=O)COCCOCCNC(=O)CC[C@H](NC(=O)CCCCCCCCCCCCCCCCC(=O)O)C(=O)O)[C@@H](C)O)C(N)=O [compound 387, *Asp;Lys;Phe;Thr;Gly;NmLeu;Nle;NH2] ({C18 diacid-γGlu-AEEA-AEEA}-DKFTG[NMeL][Nle]-NH2) |
